# Laboratory results: US7189680B2, “5-halo-6-aryl[1,2,4]triazolo[1,5-a]pyrimidin-7-amines” (Bayer Cropscience AG, priority 2001, dated 2007)
# Where two headings read alike, the source gives them in different places.
# Assay: logP determination by HPLC (EEC directive 79/831 Annex V. A8)
# Format: physicochemical
# Protocol: *) The logP values were determined in accordance with EEC directive 79/831 Annex V. A8 by HPLC (gradient method, acetonitrile/0.1% aqueous phosphoric acid)
# [1] = HPLC gradient method, acetonitrile/0.1% aqueous phosphoric acid, Table 1
# [2] = HPLC gradient method, acetonitrile/0.1% aqueous phosphoric acid, Table 1, read-out: logP*
Structure (SMILES),logP* [1],further results
CC(C)(O)CNNc1c(-c2c(F)cc(F)cc2F)c(Cl)nc2ncnn12 [Example 53],2.09,
CCN(N)c1c(-c2c(F)cc(F)cc2F)c(Cl)nc2ncnn12 [Example 17],2.27,
CCC(C)ONc1c(-c2ccccc2F)c(Cl)nc2ncnn12 (centres unmarked) [Example 63],2.69,
CCOC(=O)N(CC(C)C)OC [Example 178],,"logP (Table 2, carbamates of formula (VIII)): 2.38"
CC(C)CONc1c(-c2c(F)c(F)c(F)c(F)c2F)c(Cl)nc2ncnn12 [Example 69],3.42,
CON(C)c1c(-c2ccccc2F)c(Cl)nc2ncnn12 [Example 68],2.33,
Fc1ccccc1-c1c(Cl)nc2ncnn2c1NOCc1ccc(Cl)cc1 [Example 61],3.16,
Fc1c(F)c(F)c(-c2c(Cl)nc3ncnn3c2NOCc2ccc(Cl)cc2)c(F)c1F [Example 71],3.62,
NN(CC1CCCCC1)c1c(-c2c(F)cc(F)cc2F)c(Cl)nc2ncnn12 [Example 22],,chromatographic logP [2]: 3.67
CONc1c(-c2ccccc2F)c(Cl)nc2ncnn12 [Example 67],1.89,
"CC(C)(C)ONc1c(-c2c(F)cccc2F)c(Cl)nc2ncnn12 [Example 2, 7-(tert-butoxyamino)-5-chloro-6-(2,6-difluorophenyl)[1,2,4)triazolo[1,5-a]pyrimidine]",,"chromatographic logP (HPLC, preparation examples, read-out: HPLC: logP): 2.59"
CC(C)(C)ONc1c(-c2c(F)c(F)c(F)c(F)c2F)c(Cl)nc2ncnn12 [Example 75],3.24,
CC(C)(C)NNc1c(-c2c(F)cc(F)cc2F)c(Cl)nc2ncnn12 [Example 21],2.86,
Fc1cc(F)c(-c2c(Cl)nc3ncnn3c2NNCC2CCCO2)c(F)c1 (centres unmarked) [Example 52],2.44,
CCONc1c(-c2c(F)cc(F)cc2F)c(Cl)nc2ncnn12 [Example 40],2.33,
Fc1ccc(CONc2c(-c3ccccc3F)c(Cl)nc3ncnn23)cc1 [Example 62],2.82,
CC(NNc1c(-c2c(F)cc(F)cc2F)c(Cl)nc2ncnn12)C1CC1 (centres unmarked) [Example 25],3.02,
CCONc1c(-c2ccccc2F)c(Cl)nc2ncnn12 [Example 57],2.13,
Fc1cc(F)c(-c2c(Cl)nc3ncnn3c2NOCc2nc(-c3ccccc3)cs2)c(F)c1 [Example 9],3.21,
CCC(C)ONc1c(-c2c(F)c(F)c(F)c(F)c2F)c(Cl)nc2ncnn12 (centres unmarked) [Example 73],3.33,

Structure (SMILES),logP* [1],further results
Fc1ccccc1-c1c(Cl)nc2ncnn2c1NOCc1cccc(Cl)c1 [Example 60],3.15,
CCC(C)ONc1c(-c2c(F)cccc2F)c(Cl)nc2ncnn12 (centres unmarked) [Example 48],2.67,
Fc1ccccc1-c1c(Cl)nc2ncnn2c1NOCc1ccc(C(F)(F)F)cc1 [Example 58],3.31,
Fc1cc(F)c(-c2c(Cl)nc3ncnn3c2NNCCN2CCOCC2)c(F)c1 [Example 54],1.14,
C=CCONc1c(-c2c(F)cc(F)cc2F)c(Cl)nc2ncnn12 [Example 42],2.48,
CC(C)CONc1c(-c2c(F)cc(F)cc2F)c(Cl)nc2ncnn12 [Example 79],3,
CC(C)ON(C)c1c(-c2c(F)cccc2F)c(Cl)nc2ncnn12 [Example 34],3.01,
Fc1cccc(F)c1-c1c(Cl)nc2ncnn2c1NOCc1ccc(Cl)cc1 [Example 47],3.14,
CONc1c(-c2c(F)cccc2F)c(Cl)nc2ncnn12 [Example 32],1.92,
CC(C)CONc1c(-c2c(F)cccc2F)c(Cl)nc2ncnn12 [Example 8],2.78,
Cc1ccc(CONc2c(-c3c(F)cc(F)cc3F)c(Cl)nc3ncnn23)cc1 [Example 13],3.25,
C=CCNNc1c(-c2c(F)cc(F)cc2F)c(Cl)nc2ncnn12 [Example 24],,chromatographic logP [2]: 2.48
Fc1cc(F)c(-c2c(Cl)nc3ncnn3c2NNC2CCCCC2)c(F)c1 [Example 35],3.28,
Fc1cc(F)c(-c2c(Cl)nc3ncnn3c2NNCC(F)(F)F)c(F)c1 [Example 19],2.47,
Fc1ccccc1-c1c(Cl)nc2ncnn2c1NOCc1ccccc1Cl [Example 59],3.06,
C=CCONc1c(-c2ccccc2F)c(Cl)nc2ncnn12 [Example 64],2.27,
C=CCONc1c(-c2c(F)cccc2F)c(Cl)nc2ncnn12 [Example 50],2.28,
CC(C)(C)ONc1c(-c2ccccc2F)c(Cl)nc2ncnn12 [Example 65],2.58,
CONc1c(-c2c(F)cc(F)cc2F)c(Cl)nc2ncnn12 [Example 31],2.12,

# Further lines, with some results ahead:
logP* [1],Structure (SMILES),further results
2.85,CCCCONc1c(-c2ccccc2F)c(Cl)nc2ncnn12 [Example 100],
3.07,NN(c1c(-c2c(F)cc(F)cc2F)c(Cl)nc2ncnn12)C1CCCC1 [Example 130],
2.77,CCCCNNc1c(-c2ccccc2F)c(Cl)nc2ncnn12 [Example 90],
3.43,CC(C)CN(N)c1c(-c2ccc(C(F)(F)F)cc2F)c(Cl)nc2ncnn12 [Example 135],
3.06,NN(CC1CCC1)c1c(-c2c(F)cc(F)cc2F)c(Cl)nc2ncnn12 [Example 169],
3.85,CC(C)CN(N)c1c(-c2c(Cl)cc(C(F)(F)F)cc2Cl)c(Cl)nc2ncnn12 [Example 136],
3.18,CC(C)CNNc1c(-c2c(Cl)cccc2Cl)c(Cl)nc2ncnn12 [Example 156],
3.72,CC=NN(CC1CC1(Cl)Cl)c1c(-c2c(F)cc(F)cc2F)c(Cl)nc2ncnn12 (centres unmarked) [Example 167],
3.72,Fc1c(F)c(F)c(-c2c(Cl)nc3ncnn3c2NOCc2cccc(C(F)(F)F)c2)c(F)c1F [Example 118],
3.01,CCCCONc1c(-c2c(F)cc(F)cc2F)c(Cl)nc2ncnn12 [Example 85],
3.39,Fc1cc(F)c(-c2c(Cl)nc3ncnn3c2NOCc2cccc(C(F)(F)F)c2)c(F)c1 [Example 84],
2.62,CC(C)N(N)c1c(-c2c(F)cc(F)cc2F)c(Cl)nc2ncnn12 [Example 133],
1.1,NN(CCN1CCOCC1)c1c(-c2c(F)cc(F)cc2F)c(Cl)nc2ncnn12 [Example 129],
3.07,Fc1cccc(F)c1-c1c(Cl)nc2ncnn2c1NOCc1ccccc1Cl [Example 106],
4.02,Fc1c(F)c(F)c(-c2c(Cl)nc3ncnn3c2NOCc2ccc(Cl)cc2Cl)c(F)c1F [Example 114],
3.34,Fc1ccccc1-c1c(Cl)nc2ncnn2c1NOCc1cccc(C(F)(F)F)c1 [Example 99],
2.8,NN(CC1CC1)c1c(-c2c(Cl)cccc2Cl)c(Cl)nc2ncnn12 [Example 164],
3.22,Fc1cc(F)c(-c2c(Cl)nc3ncnn3c2NOCc2ccccc2Cl)c(F)c1 [Example 81],
1.82,N#CCCNNc1c(-c2ccccc2F)c(Cl)nc2ncnn12 [Example 94],
2.55,NN(CC1CCCO1)c1c(-c2c(F)cc(F)cc2F)c(Cl)nc2ncnn12 (centres unmarked) [Example 127],
3.57,CC(C)CN(N)c1c(-c2cc(C(F)(F)F)ccc2C(F)(F)F)c(Cl)nc2ncnn12 [Example 137],
2.8,Fc1cccc(F)c1-c1c(Cl)nc2ncnn2c1NOCc1ccccc1 [Example 103],
3.27,Fc1cc(F)c(-c2c(Cl)nc3ncnn3c2NOCc2cccc(Cl)c2)c(F)c1 [Example 82],
2.99,CCOC(=O)NN(CC(C)C)c1c(-c2c(F)cc(F)cc2F)c(Cl)nc2ncnn12 [Example 168],

logP* [1],Structure (SMILES),further results
3.2,Fc1cccc(F)c1-c1c(Cl)nc2ncnn2c1NOCc1c(Cl)cccc1Cl [Example 110],
2.42,CC(C)ONc1c(-c2ccccc2F)c(Cl)nc2ncnn12 [Example 98],
3.49,CCCCONc1c(-c2c(F)c(F)c(F)c(F)c2F)c(Cl)nc2ncnn12 [Example 119],
3.21,CCC(C)NNc1c(-c2cccc3c2OC(F)(F)O3)c(Cl)nc2ncnn12 (centres unmarked) [Example 151],
3.14,CCC(C)NNc1c(-c2c(Cl)cccc2Cl)c(Cl)nc2ncnn12 (centres unmarked) [Example 154],
3.51,CC(C)CN(N)c1c(-c2cc(C(F)(F)F)ccc2Cl)c(Cl)nc2ncnn12 [Example 140],
3.63,Fc1cccc(F)c1-c1c(Cl)nc2ncnn2c1NOCc1cc(Cl)cc(Cl)c1 [Example 104],
3.69,Fc1ccccc1-c1c(Cl)nc2ncnn2c1NOCc1cc(Cl)cc(Cl)c1 [Example 96],
3.37,NN(c1c(-c2c(Cl)cccc2Cl)c(Cl)nc2ncnn12)C1CCCC1 [Example 161],
3.37,Fc1c(F)c(F)c(-c2c(Cl)nc3ncnn3c2NOCc2ccccc2)c(F)c1F [Example 112],
2.83,CCCCONc1c(-c2c(F)cccc2F)c(Cl)nc2ncnn12 [Example 109],
2.91,CC(C)CN(N)c1c(-c2c(F)cc(F)cc2F)c(Cl)nc2ncnn12 [Example 131],
3.07,NN(CC1CCC1)c1c(-c2c(F)cccc2Cl)c(Cl)nc2ncnn12 [Example 173],
3.58,Fc1c(F)c(F)c(-c2c(Cl)nc3ncnn3c2NOCc2ccccc2Cl)c(F)c1F [Example 116],
3.32,Fc1cccc(F)c1-c1c(Cl)nc2ncnn2c1NOCc1ccc(C(F)(F)F)cc1 [Example 105],
2.86,Fc1ccc(CONc2c(-c3c(F)cccc3F)c(Cl)nc3ncnn23)cc1 [Example 107],
2.58,CC(C)CN(N)c1c(-c2c(Cl)c(F)cc(C(F)(F)F)c2Cl)c(Cl)nc2ncnn12 [Example 126],
2.18,CCONc1c(-c2c(F)cccc2F)c(Cl)nc2ncnn12 [Example 102],
2.06,CCNNc1c(-c2ccccc2F)c(Cl)nc2ncnn12 [Example 89],
3.99,CCC(C)N(N)c1c(-c2cc(C(F)(F)F)ccc2Cl)c(Cl)nc2ncnn12 (centres unmarked) [Example 146],
2.26,CN(C)Nc1c(-c2ccccc2F)c(Cl)nc2ncnn12 [Example 87],
3.04,CC(C)ONc1c(-c2c(F)c(F)c(F)c(F)c2F)c(Cl)nc2ncnn12 [Example 122],
2.66,NN(CC1CC1)c1c(-c2c(F)cc(F)cc2F)c(Cl)nc2ncnn12 [Example 159],
